Measured values published in patent publication US20010029304A1, “Cyclopentane heptan (ENE)OIC acid, 2-heteroarylalkenyl derivatives as therapeutic agents” (ALLERGAN, priority 1996, published 2001).

Legend:
[1] = molecular target: T1, EP4 (Oryctolagus cuniculus, UniProt Q28691); assay: EP4-activity: relaxation of smooth muscle of isolated rabbit jugular vein; format: cell-based; conditions: nM printed only with EC50 in the table head
T1 construct: smooth muscle of isolated rabbit jugular vein; from tissue; host or cells: isolated rabbit jugular vein smooth muscle
T1 sequence (Q28691 whole entry): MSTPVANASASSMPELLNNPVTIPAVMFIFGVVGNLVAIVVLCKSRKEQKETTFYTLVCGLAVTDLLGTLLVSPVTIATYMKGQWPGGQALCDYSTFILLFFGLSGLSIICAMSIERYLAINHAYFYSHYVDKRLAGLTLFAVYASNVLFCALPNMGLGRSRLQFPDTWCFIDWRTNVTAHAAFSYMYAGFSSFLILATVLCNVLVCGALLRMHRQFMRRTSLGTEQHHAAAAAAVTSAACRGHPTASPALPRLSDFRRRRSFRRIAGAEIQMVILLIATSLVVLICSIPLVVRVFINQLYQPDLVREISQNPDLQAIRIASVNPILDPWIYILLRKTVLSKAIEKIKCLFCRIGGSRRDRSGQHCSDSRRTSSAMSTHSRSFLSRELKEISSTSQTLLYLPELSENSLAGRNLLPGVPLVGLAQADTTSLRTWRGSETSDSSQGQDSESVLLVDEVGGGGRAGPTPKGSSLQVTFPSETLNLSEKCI
Method: (§1) Activity at different prostanoid receptors was measured in vitro in isolated smooth muscle preparations. FP-activity was measured as contraction of the isolated feline iris sphincter. EP4-activity was measured as relaxation of smooth muscle of isolated rabbit jugular vein. TP-vasoconstrictor activity was measured as contraction of rings of the isolated rat thoracic aorta. Effects on platelets from healthy human donors were measured by incubating platelet-rich plasma with the compounds described herein. Inhibition of aggregation was determined by the ability of the compounds described herein to inhibit platelet aggregation in platelet-rich plasma induced by 20 μM adenosine diphosphate (ADP).

[2] = molecular target: T2, TP (Rattus norvegicus, UniProt P34978); assay: TP-vasoconstrictor activity: contraction of rings of the isolated rat thoracic aorta; format: cell-based; conditions: EC50 (nM) printed in the first part of the table head
T2 construct: rings of the isolated rat thoracic aorta; from tissue; host or cells: rings of isolated rat thoracic aorta
T2 sequence (P34978 1-341): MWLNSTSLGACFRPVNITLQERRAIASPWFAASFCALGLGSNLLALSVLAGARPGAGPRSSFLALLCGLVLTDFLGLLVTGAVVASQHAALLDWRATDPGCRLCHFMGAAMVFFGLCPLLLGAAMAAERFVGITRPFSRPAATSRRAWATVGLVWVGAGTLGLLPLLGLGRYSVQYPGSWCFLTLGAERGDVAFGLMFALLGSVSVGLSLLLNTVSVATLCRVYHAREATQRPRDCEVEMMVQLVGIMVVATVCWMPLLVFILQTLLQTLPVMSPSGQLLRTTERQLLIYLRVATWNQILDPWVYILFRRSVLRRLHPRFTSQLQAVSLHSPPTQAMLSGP
Method: as §1

[3] = system: Dog intraocular pressure; assay: Dog intraocular pressure (applanation pneumatonometry) with hyperemia/miosis; format: in vivo; conditions: for Dog IOP (1 day): 25 μl to the ocular surface, IOP before and at 6 hours after drug; for Hyp: first part of Hyp/Mlosis cell; for Mlosis: second part of Hyp/Mlosis cell
Method: The compounds were prepared at the said concentrations in a vehicle comprising 0.1% polysorbate 80 and 10 mM tris (hydroxy methyl) aminomethane hydrochloride (TRIS) base. Dogs were treated by administering 25 μl to the ocular surface, the contralateral eye received vehicle as a control. Intraocular pressure was measured by applanation pneumatonometry. Dog intraocular pressure was measured immediately before drug administration and at 6 hours thereafter.

SMILES | IC25 EP4 [1] [nM] | EC50 [2] [nM] | Hyp ([3]; 0.1%) | Mlosis ([3]; 0.1%) | Hyp ([3]; 0.01%) | Mlosis ([3]; 0.01%) | Dog IOP (1 day) ([3]; 0.1%) | Dog IOP (1 day) ([3]; 0.01%)
NC(=O)CCC/C=C\C[C@H]1C(O)CC(O)C1/C=C/C(O)CCc1cc(Br)c(Br)s1 (some centres unmarked) | 165 | – | – | – | – | – | – | –
Cc1ccc(CCC(O)/C=C/C2C(O)CC(O)[C@@H]2C/C=C\CCCC(N)=O)o1 (some centres unmarked) | 3760 | – | 0.75 | pinpoint | – | – | 0.1%/−2.1 | –
Cc1cc(CCC(O)/C=C/C2C(O)CC(O)[C@@H]2C/C=C\CCCC(N)=O)cs1 (some centres unmarked) | 1630 | – | 0.6 | pinpoint | – | – | 0.1%/−3.6 | –
COC(/C=C/C1C(O)CC(O)[C@@H]1C/C=C\CCCC(=O)O)CCc1ccco1 (some centres unmarked) | 57 | – | – | – | – | – | – | –
COC(/C=C/C1C(O)CC(O)[C@@H]1C/C=C\CCCC(=O)O)CCc1ccsc1C (some centres unmarked) | 100 | – | – | – | – | – | – | –

More lines, main results first:

IC25 EP4 [1] [nM] | EC50 [2] [nM] | Hyp ([3]; 0.1%) | Mlosis ([3]; 0.1%) | Hyp ([3]; 0.01%) | Mlosis ([3]; 0.01%) | SMILES | Dog IOP (1 day) ([3]; 0.1%) | Dog IOP (1 day) ([3]; 0.01%)
21190 | – | – | – | – | – | O=C(O)CCC/C=C\C[C@H]1C(O)CC(O)C1/C=C/C(O)CCc1sc2ccccc2c1Cl (some centres unmarked) | – | –
23 | 692 | – | – | – | – | O=C(O)CCC/C=C\C[C@H]1C(O)CC(O)C1/C=C/C(O)CCc1cc(Br)c(Br)s1 (some centres unmarked) | – | –
23 | > 10000 | 1.13 | pinpoint | – | – | Cc1ccc(CCC(O)/C=C/C2C(O)CC(O)[C@@H]2C/C=C\CCCC(=O)O)o1 (some centres unmarked) | 0.1%/−2.7 | –
620 | – | 1.0 | pinpoint | 1.5 | pinpoint | NC(=O)CCC/C=C\C[C@H]1C(O)CC(O)C1/C=C/C(O)CCc1ccco1 (some centres unmarked) | −4.4 | −3.2
